According to patent US10954265B2 (Van Andel Research Institute, priority 2016, dated 2021):
Substitutions are numbered along the chain they refer to. Where “and” joins values, the source holds several entries; their conditions need not be identical. Equal entries are not always repeated. Values belong to the compound of their own block, whether it stands above or below them.

Legend:
GR [1] = molecular target: T1, GR (Homo sapiens, UniProt P04150); assay: Determination of induction activity, MMTV-Luc reporter in AD293 cells transfected with pRShGR (Table 3, FIG. 14); settings: for % to Dex induction: relative to DEX 1000 nM; for RLU / RLU/Renilla: single replicate wells; for activation at 0.01 µM / activation at 1 µM: AD293, 16 h, read-out: % to Dex induction; for fold induction at 0.01 µM / fold induction at 1 µM: AD293, read-out: Steroid Fold Induction
T1 sequence (P04150 1-777): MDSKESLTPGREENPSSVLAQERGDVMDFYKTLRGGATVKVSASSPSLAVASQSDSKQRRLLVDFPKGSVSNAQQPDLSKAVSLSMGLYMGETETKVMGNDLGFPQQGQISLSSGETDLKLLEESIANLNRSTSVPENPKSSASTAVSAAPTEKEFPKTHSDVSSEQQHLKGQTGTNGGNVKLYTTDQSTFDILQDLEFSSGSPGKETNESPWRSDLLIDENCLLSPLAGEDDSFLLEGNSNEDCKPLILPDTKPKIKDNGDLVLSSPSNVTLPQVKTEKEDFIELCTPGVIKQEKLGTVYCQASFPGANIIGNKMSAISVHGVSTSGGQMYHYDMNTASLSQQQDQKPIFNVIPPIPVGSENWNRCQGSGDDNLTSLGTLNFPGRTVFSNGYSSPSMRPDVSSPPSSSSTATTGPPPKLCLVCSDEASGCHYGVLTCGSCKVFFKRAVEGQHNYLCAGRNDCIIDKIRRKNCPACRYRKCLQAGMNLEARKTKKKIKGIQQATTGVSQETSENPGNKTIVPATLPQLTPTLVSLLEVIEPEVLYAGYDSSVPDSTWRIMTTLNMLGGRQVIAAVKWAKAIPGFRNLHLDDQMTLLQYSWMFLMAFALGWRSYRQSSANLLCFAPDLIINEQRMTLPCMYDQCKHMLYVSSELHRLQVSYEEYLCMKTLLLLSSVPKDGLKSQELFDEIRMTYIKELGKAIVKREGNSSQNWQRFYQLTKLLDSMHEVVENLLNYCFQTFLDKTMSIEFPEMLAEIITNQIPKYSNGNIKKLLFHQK
Method: (§1) AD293 cells were split at 20,000/well in 24 well plate one day before transfection. For transactivation, 100 ng pHHLuc (MMTV-Luc) plasmid, 0.1 ng pRShGR together with 5 ng phRGtkRenilla were transfected by X-tremeGENE 9 (Roche) into AD293 cells per well. For transreperssion, 10 ng AP1-Luc, 100 ng pRShGR and 5 ng phRGtkRenilla were transfected into AD293 cells per well. One day after transfection, cells were induced by different treatment (steroids or vehicle) 16 hrs overnight. Cells were harvest by 1× passive lysis buffer (Promega), luciferase activity was assayed by the Dual-Glo Luciferase system (Promega). Data were plotted by Luciferase Value/Renilla Value, as Relative Luciferase Unit (RLU).
AD293 cells were transfected with 0.1 ng pRShGR, 100 ng MMTV-Luc reporter, and 10 ng TK-Renilla internal control per well in a 24-well plate. One day after transfection, cells were induced by candidate compounds at a concentration of 10 nm or 1 um (see FIG. 14). Cells were harvested and luciferase activity was measured by Promega Dual Luciferacse kit.

GR Q642N = molecular target: T2, GR Q642N (Homo sapiens, UniProt P04150, Q642N); assay: Transactivation on MMTV-Luc in AD293 cells, GR Q642N mutant; format: cell-based; settings: compared with wild type, up to saturation concentration
T2 construct: expressed in transfected cells; host or cells: AD293
T2 sequence (P04150 1-777 Q642N): T1 sequence (P04150 1-777) with Q642N
Method: as §1

[2] = system: OVA-induced mouse asthma model; assay: OVA-induced mouse asthma model, lung function (RL) by FlexiVent; format: in vivo
Method: A OVA-induced mouse asthma model was used to examine the anti-inflammatory effect of candidate compounds. 7-9 weeks old Balb/c mice were primarily immunized with OVA (ovalbumin). […] Related Lung (RL) function in response to acetylcholine was measured by the forced oscillation techniques with the FlexiVent system (SCIREQ).
To evaluate the effect of candidate compounds in repressing lung inflammation, a OVA-induced mouse asthma model was used (RL: relative lung function).

GR [3] = molecular target: T1, GR; assay: Potency of candidate compounds in MMTV-luciferase reporter, full dose-response (FIG. 16A); format: cell-based; design: expressed in transfected cells; host or cells: AD293; settings: doses 0.01 nM to 1000 nM
Description: To evaluate the potency of candidate compounds in a reporter system, an MMTV-luciferase reporter was used.

GR [4] = molecular target: T1, GR; assay: GR transactivation, MMTV-driven luciferase reporter (MMTV-Luc) in AD293 cells; format: cell-based; design: expressed in transfected cells; host or cells: AD293; settings: transactivation assay, FIG. 3B
Method: as §1

Structure (SMILES): C[C@@H]1C[C@H]2[C@@H]3CCC4=CC(=O)C=C[C@]4(C)[C@@]3(F)[C@@H](O)C[C@]2(C)[C@@]1(O)C(=O)CO [DEX, dexamethasone, reference compound]
% to Dex induction (GR [1]; 10 nM): 52.82%
% to Dex induction (GR [1]; 1000 nM): 100%

Structure (SMILES): C[C@@H]1CC2C3C=C(F)C4=Cc5c(cnn5-c5ccccc5)C[C@]4(C)[C@@]3(F)C(O)C[C@]2(C)[C@@]1(OC(=O)c1ccco1)C(=O)OC(C)(C)C (stereo partly shown) [Compound 6]
Mean (RLU/Renilla) (GR [1]; 10 nM): 1.417
RLU (GR [1]; 10 nM): 353,720 and 347,400 and 378,600
RLU/Renilla (GR [1]; 10 nM): 1.291 and 1.356 and 1.605
Mean (RLU/Renilla) (GR [1]; 1000 nM): 1.614
RLU (GR [1]; 1000 nM): 385,840 and 290,120 and 330,680
RLU/Renilla (GR [1]; 1000 nM): 1.694 and 1.490 and 1.659
activation at 0.01 µM (GR [1]): 98.8%
activation at 1 µM (GR [1]): 113%
fold induction at 0.01 µM (GR [1]): 28.7
fold induction at 1 µM (GR [1]): 32.7

Structure (SMILES): CCOC(=O)[C@@]1(OC(=O)c2ccco2)[C@H](C)CC2C3C=C(F)C4=Cc5c(cnn5-c5ccccc5)C[C@]4(C)[C@@]3(F)C(O)C[C@@]21C (stereo partly shown) [Compound 2]
Mean (RLU/Renilla) (GR [1]; 10 nM): 1.328
RLU (GR [1]; 10 nM): 221,760 and 206,200 and 190,520
RLU/Renilla (GR [1]; 10 nM): 1.316 and 1.430 and 1.238
Mean (RLU/Renilla) (GR [1]; 1000 nM): 1.311
RLU (GR [1]; 1000 nM): 296,680 and 295,960 and 323,600
RLU/Renilla (GR [1]; 1000 nM): 1.365 and 1.267 and 1.302
activation at 0.01 µM (GR [1]): 92.6%
activation at 1 µM (GR [1]): 91.5%
fold induction at 0.01 µM (GR [1]): 26.9
fold induction at 1 µM (GR [1]): 26.6

Structure (SMILES): C[C@]12CCC(=O)C=C1CC[C@@H]1[C@@H]2[C@@H](O)C[C@@]2(C)[C@H]1CC[C@]2(O)C(=O)CO [cortisol, Cortisol]
full dose-response curve of Q642N (GR Q642N): inactive

Structure (SMILES): CON(C)C(=O)[C@@]1(OC(=O)c2ccco2)[C@H](C)CC2C3C=C(F)C4=Cc5c(cnn5-c5ccccc5)C[C@]4(C)[C@@]3(F)C(O)C[C@@]21C (stereo partly shown) [VSGC12, reference compound]
Mean (RLU/Renilla) (GR [1]; 10 nM): 1.402
RLU (GR [1]; 10 nM): 316,240 and 298,600 and 289,480
RLU/Renilla (GR [1]; 10 nM): 1.598 and 1.522 and 1.085
Mean (RLU/Renilla) (GR [1]; 1000 nM): 1.682
RLU (GR [1]; 1000 nM): 331,400 and 309,120 and 312,400
RLU/Renilla (GR [1]; 1000 nM): 1.767 and 1.765 and 1.513
activation at 0.01 µM (GR [1]): 97.8%
activation at 1 µM (GR [1]): 117%
fold induction at 0.01 µM (GR [1]): 28.4
fold induction at 1 µM (GR [1]): 34.1

Structure (SMILES): C[C@@H]1CC2C3C=C(F)C4=Cc5c(cnn5-c5ccccc5)C[C@]4(C)[C@@]3(F)C(O)C[C@]2(C)[C@@]1(OC(=O)c1ccco1)C(=O)OCF (stereo partly shown) [Compound 4]
Mean (RLU/Renilla) (GR [1]; 10 nM): 1.332
RLU (GR [1]; 10 nM): 288,320 and 249,160 and 244,360
RLU/Renilla (GR [1]; 10 nM): 1.518 and 1.258 and 1.222
Mean (RLU/Renilla) (GR [1]; 1000 nM): 1.153
RLU (GR [1]; 1000 nM): 222,960 and 225,280 and 226,280
RLU/Renilla (GR [1]; 1000 nM): 1.178 and 1.134 and 1.147
activation at 0.01 µM (GR [1]): 92.9%
activation at 1 µM (GR [1]): 80.4%
fold induction at 0.01 µM (GR [1]): 27
fold induction at 1 µM (GR [1]): 23.4
repression of lung inflammation compared with VSGC12 ([2]; 0.125 mg/kg, FIG. 16B): much higher repression activity
increase in potency over fluticasone furoate (FF) ([2]; FIG. 15): 8 fold
potency in repressing lung inflammation compared with FF ([2]; FIG. 15, side by side comparison): much more potent
potency compared with VSGC12 and DEX (GR [3]): higher potency

leftward shift of the cortisol dose-response curve (GR [4]): about 5 fold
Structure (SMILES): C[C@]12C=CC(=O)C=C1CC[C@@H]1[C@@H]2[C@@H](O)C[C@@]2(C)[C@H]1CC[C@]2(O)C(=O)CO [prednisolone]

Structure (SMILES): CC(C)OC(=O)[C@@]1(OC(=O)c2ccco2)[C@H](C)CC2C3C=C(F)C4=Cc5c(cnn5-c5ccccc5)C[C@]4(C)[C@@]3(F)C(O)C[C@@]21C (stereo partly shown) [Compound 3]
Mean (RLU/Renilla) (GR [1]; 10 nM): 1.462
RLU (GR [1]; 10 nM): 295,280 and 295,520 and 299,320
RLU/Renilla (GR [1]; 10 nM): 1.505 and 1.300 and 1.580
Mean (RLU/Renilla) (GR [1]; 1000 nM): 1.219
RLU (GR [1]; 1000 nM): 249,160 and 279,160 and 254,120
RLU/Renilla (GR [1]; 1000 nM): 1.143 and 1.332 and 1.181
activation at 0.01 µM (GR [1]): 102%
activation at 1 µM (GR [1]): 85%
fold induction at 0.01 µM (GR [1]): 29.6
fold induction at 1 µM (GR [1]): 24.7

Structure (SMILES): C[C@@H]1CC2C3C=C(F)C4=Cc5c(cnn5-c5ccccc5)C[C@]4(C)[C@@]3(F)C(O)C[C@]2(C)[C@@]1(OC(=O)c1ccco1)C(=O)SCF (stereo partly shown) [Compound 5]
Mean (RLU/Renilla) (GR [1]; 10 nM): 1.444
RLU (GR [1]; 10 nM): 298,760 and 265,160 and 249,760
RLU/Renilla (GR [1]; 10 nM): 1.485 and 1.433 and 1.413
Mean (RLU/Renilla) (GR [1]; 1000 nM): 1.235
RLU (GR [1]; 1000 nM): 346,400 and 350,240 and 345,760
RLU/Renilla (GR [1]; 1000 nM): 1.108 and 1.227 and 1.371
activation at 0.01 µM (GR [1]): 101%
activation at 1 µM (GR [1]): 86.1%
fold induction at 0.01 µM (GR [1]): 29.3
fold induction at 1 µM (GR [1]): 25

Structure (SMILES): C[C@@H]1CC2C3C=C(F)C4=Cc5c(cnn5-c5ccccc5)C[C@]4(C)[C@@]3(F)C(O)C[C@]2(C)[C@@]1(OC(=O)c1ccco1)C(=O)O (stereo partly shown) [Compound 1]
Mean (RLU/Renilla) (GR [1]; 10 nM): 0.119
induction activity compared to other candidate compounds and VSGC12 (GR [1]; 10 nM): much lower induction activity
RLU (GR [1]; 10 nM): 21,720 and 17,200 and 24,320
RLU/Renilla (GR [1]; 10 nM): 0.116 and 0.093 and 0.149
Mean (RLU/Renilla) (GR [1]; 1000 nM): 0.806
RLU (GR [1]; 1000 nM): 186,480 and 180,880 and 219,480
RLU/Renilla (GR [1]; 1000 nM): 0.642 and 0.818 and 0.959
activation at 0.01 µM (GR [1]): 8.33%
activation at 1 µM (GR [1]): 56.2%
fold induction at 0.01 µM (GR [1]): 2.42
fold induction at 1 µM (GR [1]): 16.4
